The values that follow come from PubChem BioAssay (NCI).

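A five-concentration, 48-hour dose response in 96-well plates underlies each endpoint, interpolated linearly between surrounding concentrations. TGI denotes the concentration required for complete inhibition of growth.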

Common to all, as to assay: NCI anticancer screen, dose series, 48 h
The subject of experiment [1] is SF-268 CNS.
Experiment [2] has as its system CCRF-CEM leukemia.
The subject of experiment [3] is NCI-H23 lung.
The test system of experiment [4] is SK-OV-3 ovarian.
The test system of experiment [5] is HOP-92 NSCLC.
For experiment [6], the system named is U251 CNS.
Experiment [7] concerns SN12C renal.
For experiment [8], the system named is LOX IMVI melanoma.
The test system of experiment [9] is EKVX NSCLC.
In experiment [10] the test system is HT29 colon.

As to `O=C1O[C@H]2[C@@H]3OC(=O)c4cc(O)c(O)c(O)c4-c4c(cc(O)c(O)c4O)C(=O)OC[C@H]2O[C@@H](OC(=O)c2cc(O)c(O)c(O)c2)[C@@H]3OC(=O)c2cc(O)c(O)c3c2[C@@H]2C1=CC(=O)C(O)(O)C2(O)O3` (stereo not given in full), the TGI is more than 100 µM in experiment [1]; more than 100 µM in experiment [2]; more than 100 µM in experiment [3]; more than 100 µM in experiment [4]; more than 100 µM in [5]; 33.5 µM in experiment [6]. In addition, the TGI is 32.3 µM in [7], 26.1 µM in [8], more than 100 µM in experiment [9] and 34.2 µM in [10].

On to `S=C1SC(c2ccc(Cl)cc2)(c2ccc(Cl)cc2)c2ccccc21`, for which the TGI in [1], in [2], in [3], in experiment [4], in experiment [5] and in experiment [6] was more than 100 µM throughout. The TGI in [7], in experiment [8], in experiment [9] and in [10] was more than 100 µM throughout.

For `CC1(C)CC[C@]2(C(=O)O)CC[C@]3(C)C(=CC[C@@H]4[C@@]5(C)CC[C@H](OC6OC(CO)C(O)C(O)C6OC6OC(CO)C(O)C(O)C6O)C(C)(C)[C@@H]5CC[C@]43C)[C@@H]2C1` (stereo not given in full), the TGI in experiment [1] was 32 µM; in experiment [2] it was 46.5 µM; in experiment [3], 53.7 µM; in experiment [4] it was 31.9 µM; in [5], 31.7 µM; in [6], 16.4 µM. Further, the TGI in experiment [7] was 33.2 µM; in experiment [8], 82.4 µM; in experiment [9], 35.4 µM; in [10] it was 30.2 µM.

Take `CN(C)/C=N/S(=O)(=O)c1nn2c(C=O)c(-c3ccc(-c4ccc([N+](=O)[O-])cc4)o3)nc2s1`: the TGI in [1] is more than 29 µM; in experiment [2] it was 3.98 µM; in [3], 16.2 µM; in experiment [4], more than 71.5 µM; in [5], 8.12 µM; in experiment [6] it was more than 30.2 µM. The TGI in [7] is 4.57 µM; in [8], more than 25 µM; in experiment [9], 21.1 µM; in experiment [10], 2.19 µM.

Consider `O=C1C[C@H]2[C@H](c3ccc(Br)cc3)[C@H]3C(=O)c4ccccc4NC(=O)[C@@H]3[C@@]2(O)c2ccccc2N1`, for which the TGI is more than 100 µM in experiment [1]; 53.3 µM in [2]; 38.9 µM in [3]; 78.8 µM in [4]; 4.96 µM in experiment [5]; more than 100 µM in experiment [6]. The TGI is more than 100 µM in experiment [7], 37.1 µM in experiment [8], more than 100 µM in [9] and 30.8 µM in experiment [10].

As to `COC(=O)NN1C(C)=C(C(=O)OC)C2(CCOC2=O)C1(C)O` (stereo not given), the TGI in experiment [1], in [2], in experiment [3], in [4], in experiment [5] and in experiment [6] was more than 100 µM in each case. For the same molecule, the TGI in [7], in experiment [8], in experiment [9] and in experiment [10] was more than 100 µM each time.

In the case of `COC(Cc1ccccc1)NC(C)=O` (stereo not given), the TGI in experiment [1], in experiment [2], in [3], in experiment [4], in experiment [5] and in experiment [6] was more than 100 µM in each case. The TGI in experiment [7], in experiment [8], in experiment [9] and in [10] was more than 100 µM each time.

Turning to `Cc1nc(C)c(N2CCN(C#N)CC2)c(=O)[nH]1`, the TGI in experiment [1], in experiment [2], in experiment [3], in [4], in [5] and in experiment [6] was more than 100 µM in each case. Besides, the TGI in experiment [7], in experiment [8], in experiment [9] and in experiment [10] was more than 100 µM in each case.

In the case of `CSc1ccc2c(cc1=O)[C@@H](NC(=O)c1ccc(F)cc1)CCc1cc(O)c(O)c(O)c1-2`, the TGI in experiment [1], in [2], in experiment [3], in experiment [4], in experiment [5] and in [6] was more than 100 µM each time. Moreover, the TGI in [7], in [8], in [9] and in [10] was more than 100 µM throughout.

`C/C(=N\Nc1nc2ccccc2o1)c1ccncn1`: the TGI in [1] was more than 53.8 µM; in experiment [2] it was more than 100 µM; in experiment [3], more than 47.7 µM; in experiment [4], 17.4 µM; in experiment [5], 6.05 µM; in experiment [6] it was more than 36.4 µM. In addition, the TGI is more than 100 µM in experiment [7], more than 37.1 µM in experiment [8], more than 100 µM in experiment [9] and more than 35.6 µM in [10].

Regarding `CCC/C(=N\NC(=O)c1cc2ccccc2cc1O)C(CC)C(=O)CCC(=O)N(Cc1ccccc1)Cc1ccccc1` (stereo not given), the TGI in [1] was more than 100 µM; in experiment [2] it was 41.7 µM; in [3] it was more than 100 µM; in experiment [4], more than 100 µM; in experiment [5], more than 100 µM; in experiment [6] it was more than 100 µM. In addition, the TGI in experiment [7], in experiment [8], in experiment [9] and in experiment [10] was more than 100 µM each time.

Regarding `CCOC(=O)C1(Cc2ccccc2)Cc2ccccc2C1=O` (stereo not given), the TGI in experiment [1] was more than 100 µM; in experiment [2], 95.5 µM; in [3], 69.9 µM; in experiment [4] it was more than 100 µM; in [5], 56 µM; in experiment [6], more than 100 µM. Further, the TGI was more than 100 µM in experiment [7], more than 100 µM in experiment [8], 97.8 µM in experiment [9] and 65.2 µM in [10].

Consider `N/N=C(\C(=O)Nc1ccc([N+](=O)[O-])cc1)C(C1=Nc2cc([N+](=O)[O-])ccc2NC1)[N+](=O)[O-]` (stereo not given), for which the TGI in [1], in [2], in experiment [3], in experiment [4], in experiment [5] and in experiment [6] was more than 100 µM throughout. For the same molecule, the TGI in [7], in [8], in experiment [9] and in experiment [10] was more than 100 µM in each case.

In the case of `CC(NC(=O)C(N)CC(=O)O)NC(=O)N1CCCC1` (stereo not given), the TGI in experiment [1], in [2], in [3], in experiment [4], in experiment [5] and in experiment [6] was more than 100 µM in each case. Further, the TGI in experiment [7], in experiment [8], in experiment [9] and in [10] was more than 100 µM in each case.

Turning to `O=C1NN(c2ccccc2)C(=O)C2C3c4ccccc4C(c4ccccc43)C12` (stereo not given), the TGI in experiment [1], in experiment [2], in [3], in [4], in [5] and in [6] was more than 100 µM each time. Moreover, the TGI in [7], in experiment [8], in [9] and in experiment [10] was more than 100 µM in each case.

As for `Nc1ccc(N)c2c1C(=O)c1c(N)ccc(N)c1C2=O`, the TGI in experiment [1] is more than 100 µM; in experiment [2], more than 68.3 µM; in [3] it was more than 100 µM; in experiment [4] it was more than 100 µM; in experiment [5] it was more than 92.3 µM; in experiment [6], more than 100 µM. Also, the TGI in experiment [7] is more than 100 µM; in [8] it was more than 31.6 µM; in experiment [9], more than 100 µM; in experiment [10] it was more than 100 µM.

As for `Cn1cnc([N+](=O)[O-])c1Sc1nc(N)nc2c1ncn2Cc1ccccc1`, the TGI in [1] was 44.6 µM; in experiment [2], more than 100 µM; in experiment [3], 36.9 µM; in experiment [4], 57 µM; in experiment [5] it was 35.9 µM; in experiment [6], 60.1 µM. The TGI came to 37.3 µM in experiment [7], 65.4 µM in [8], 42.3 µM in [9] and 67.8 µM in experiment [10].

In the case of `CC(=O)O[C@H]1[C@@H](N2CCN(C)CC2)C[C@H]2[C@@H]3CC=C4C[C@@H](N5CCCC5)CC[C@]4(C)[C@H]3CC[C@@]21C`, the TGI in experiment [1], in experiment [2], in [3], in experiment [4], in [5] and in [6] was more than 100 µM in each case. Moreover, the TGI in [7] is more than 100 µM; in [8], 39.4 µM; in [9], more than 100 µM; in experiment [10] it was more than 100 µM.

As to `CCCCOC(=O)C1CN2C(=NC1(C(F)(F)F)C(F)(F)F)Sc1ccccc12` (stereo not given), the TGI in [1], in experiment [2], in experiment [3], in [4], in experiment [5] and in experiment [6] was more than 100 µM in each case. Besides, the TGI in [7], in experiment [8], in [9] and in experiment [10] was more than 100 µM in each case.

`CC1(C)O[C@@H]2[C@@H]3OC(=O)C[C@@H]3[C@@H](COCc3ccccc3)[C@@H]2O1`: the TGI in experiment [1], in [2], in experiment [3], in experiment [4], in experiment [5] and in [6] was more than 100 µM throughout. Moreover, the TGI in experiment [7], in experiment [8], in experiment [9] and in experiment [10] was more than 100 µM in each case.

Take `CC1Cc2cc(O)ccc2C2[C@@H]1C1CC[C@H](O)[C@@]1(C)C[C@@H]2O[N+](=O)[O-]` (stereo not given in full): the TGI in experiment [1] is more than 93.1 µM; in [2], 41.9 µM; in [3] it was 67.8 µM; in experiment [4] it was more than 100 µM; in experiment [5] it was 97.6 µM; in [6], 23 µM. In addition, the TGI in experiment [7] was more than 94.4 µM; in experiment [8] it was 32.7 µM; in experiment [9], more than 100 µM; in [10], 31.1 µM.

For the molecule `CN1CCN(c2ccc(-n3cc(C(=O)O)c(=O)c4cc(F)c(N5CCN(C)CC5)cc43)nc2)CC1`, the TGI in experiment [1], in experiment [2], in experiment [3], in [4], in experiment [5] and in experiment [6] was more than 100 µM in each case. The TGI in experiment [7], in experiment [8], in [9] and in experiment [10] was more than 100 µM each time.

`OCSc1nn(CO)c(=S)s1`: the TGI in experiment [1] was 50.5 µM; in [2], 55.1 µM; in experiment [3], 40.5 µM; in experiment [4], 92.7 µM; in experiment [5], 41.7 µM; in experiment [6] it was 56.8 µM. In addition, the TGI in [7] is 49.4 µM; in experiment [8], 40.7 µM; in [9], 89.3 µM; in [10], 75.3 µM.

Take `COC(=O)[C@@H]1C[C@]2(CC=C(C)C)c3ccccc3N(S(=O)(=O)c3ccccc3)[C@@H]2N1C(=O)OC`: the TGI in experiment [1] was 99.3 µM; in experiment [2] it was more than 100 µM; in experiment [3], more than 100 µM; in experiment [4] it was more than 100 µM; in experiment [5] it was more than 100 µM; in experiment [6], 41.8 µM. In addition, the TGI in experiment [7] was more than 100 µM; in [8], more than 100 µM; in experiment [9] it was 27.5 µM; in experiment [10] it was more than 100 µM.

On to `COC(=O)CCC(=O)c1ccc2c(c1)CC1(C2)Cc2ccc3c(c2C1)CCCC3=O` (stereo not given), for which the TGI was more than 100 µM in experiment [1]; 11 µM in experiment [2]; more than 76.5 µM in experiment [3]; more than 100 µM in experiment [4]; 64.7 µM in experiment [5]; more than 100 µM in [6]. Moreover, the TGI is more than 100 µM in [7], more than 100 µM in experiment [8], more than 100 µM in experiment [9] and more than 76.9 µM in experiment [10].
